The text below walks through data of patent publication US9907762B2, “Stabilized mutant opsin proteins” (University of Washington, priority 2003, dated 2018).

Assay [1] has as its target T1, wild-type opsin (Bos taurus, UniProt P02699).
T1 construct: expressed in transfected cells
In words: Pigment formation, retinals added to cell culture medium during opsin biosynthesis. Type of assay: cell-based. As to conditions: for pigment formation with wild-type opsin: retinal 50 μM added during biosynthesis; for absorbance max of the pigment formed with wild-type opsin: retinal added during biosynthesis, immunoaffinity purified. The source says: (§1) For the construction and selection of tetracycline-inducible opsin cell lines, an Invitrogen T-REx™ system was used. Briefly, nucleic acids encoding wild-type opsin and the P23H mutant were excised as EcoRI-NotI fragments from pMT4 and then cloned into the EcoRI-NotI site within the polylinker of pcDNA4. Using opsin-specific forward and reverse primers, the entire gene was sequenced for verification. These plasmids were then separately transfected by calcium-phosphate precipitation into T-REx™-293 cells that already stably expressed the tetracycline repressor; these cells were routinely grown under blasticidin selection. After transfection, zeocin was added to the culture medium, and surviving colonies of cells were isolated and subsequently expanded into larger 6-well plates. Each of these clones was exposed to tetracycline, and 48 hours after induction, the cells were harvested and solubilized with 1% DM. Separately, uninduced cells were also solubilized. The samples were run on SDS-PAGE and immunoblotted with the monoclonal antibody 1D4. Cell lines were chosen on the basis of production of the least amount of opsin (i.e., nondetectable opsin levels on immunoblots) in the absence of tetracycline and moderate amounts of opsin in the presence of the drug. HEK293 cells were grown in Dulbecco's modified Eagle's medium containing high glucose (Invitrogen) at 37° C. in the presence of 5.0% CO2. In all of the studies, the cells were harvested after 48 hours of induction with tetracycline (1 μg/ml).
(§2) The cells were washed three times with PBS, harvested, and incubated with different analogs of 11-cis-retinal (50 μM) for 45 minutes at 4° C. The cells were then lysed with 1.0% n-dodecyl-maltoside (DM) (Anatrace) in the presence of protease inhibitors (complete protease inhibitor mixture tablets; Roche Molecular Biochemicals) and centrifuged at 36,000 rpm in a Beckman ultracentrifuge for 30 minutes at 4° C. The supernatant was incubated with 1D4-coupled CNBr-activated Sepharose 4B (Pharmacia Corp.) beads overnight. The beads were then washed three times with PBS containing 0.1% DM. Bound pigments were eluted off the beads using 0.1 mM synthetic peptide (last 9 amino acid residues of the C terminus of rhodopsin) in 0.1% DM. In studies when retinoids (50 μM) were added during biosynthesis, a Me2SO solution of retinoids (10 μl of 100 mM) was added directly to the cell culture medium after 2 and 24 hours of induction. The cells were harvested at 48 hours and lysed with 1.0% DM. Pigment was purified by immunoaffinity chromatography. The UV-visible spectra of the eluted pigment samples were then recorded on a Perkin Elmer Lambda 800 UV-visible spectrophotometer in the range of 250-650 nm.

Assay [2] has as its target T1, wild-type opsin. In words: Pigment regeneration, retinals added to harvested cells/cell membranes. Type of assay: biochemical. Conditions: retinal 50 μM added to harvested cells, 45 minutes at 4° C.
Excerpt: as §1, §2

The target in assay [3] is T2, P23H-opsin (Bos taurus, UniProt P02699, P23H).
T2 construct: expressed in transfected cells
Described as above. Type of assay: biochemical. As to conditions: retinal added after the cells were harvested.
Excerpt: as §1, §2

Assay [4] concerns the target T2, P23H-opsin. The experiment in a line: Pigment formation, retinals added to cell culture medium during opsin biosynthesis. The format is cell-based. Conditions: for pigment formation / rescue of folding of P23H-opsin: retinal 50 μM added during biosynthesis; for absorbance max of the pigment formed with P23H-opsin: retinal added during biosynthesis, immunoaffinity purified.

The target of assay [5] is T1, wild-type opsin. The experiment in a line: Photosensitivity studies. The format is biochemical.
The target of assay [6] is T1, wild-type opsin. In words: Immunocytochemistry, localization in HEK293 cells. Type of assay: cell-based. As to conditions: immunofluorescence. Here is the method: HEK293 cells expressing wild-type rhodopsin or P23H-opsin under a tetracycline-inducible promoter were cultured in Dulbecco's modified Eagle's medium (Invitrogen). The cells were attached to glass bottom microwell dishes (MatTek Corp.) with Cell-Tak (Becton Dickinson Labware). Expression of opsin or P23H-opsin was induced by the addition of 1 μg/ml tetracycline as recommended by the manufacturer's protocol (Invitrogen). The cells were treated with 50 μM 11-cis-7-ring retinal 2 hours after induction. The cells were harvested after 24 hours and fixed with 4% paraformaldehyde (Fisher) in PBS (136 mM NaCl, 11.4 mM sodium phosphate, pH 7.4) for 10 minutes and washed by PBS. To block nonspecific labeling, the cells were incubated in 1.5% normal goat serum (Vector Lab., Inc.) in PBST (136 mM NaCl, 11.4 mM sodium phosphate, 0.1% Triton X-100, pH 7.4) for 15 minutes at room temperature. The cells were incubated overnight at 4° C. in purified 1D4 antibody diluted with PBST. The sections were rinsed in PBST and incubated with indocarbocyanine (Cy3)-conjugated goat anti-mouse IgG (Jackson ImmunoResearch Lab., Inc.) and Hoechst 33342 dye (Molecular Probes). […] For confocal imaging, the cells were analyzed on a Zeiss LSM510 laser scanning microscope (Carl Zeiss, Inc.).

For assay [7], the target named is T1, wild-type opsin. The experiment in a line: Thermostability of pigments. Conditions: incubation at either 4° C. or 37° C. The format is biochemical.
In assay [8] the target is T2, P23H-opsin. In words: Glycosylation status by immunoblotting. Conditions: retinal added during biosynthesis, immunoblot. Type of assay: cell-based. On the procedure:
The samples were loaded on 10% SDS-polyacrylamide gels and transferred to Immobilon-NC membrane (Millipore) according to established protocols. The membranes were blocked with blocking buffer (Licor) for 1 hour and incubated at room temperature with 1D4 antibody (1:1000) for 1 hour. […] The membranes were then washed with PBS containing Tween 20 and scanned using an Odyssey Infrared imager (Licor).
The samples were incubated at 37° C. for 16 hours and then loaded onto a 10% polyacrylamide gel. The immunoblots were developed as described above.
A general note: Immunoblotting shows a protein as a band on a membrane.

Assay [9] addresses T1, wild-type opsin. The experiment in a line: Retinoid analysis of the bound chromophore (HPLC, spectrophotometry). Type of assay: binding. On the procedure:
(§3) The mixture was kept at room temperature for 30 min, and then 400 μl of MeOH and 400 μl of hexane were added. The mixture was shaken on a vortex for 5 minutes and centrifuged at 14,000 rpm to separate layers. The hexane layer was collected. Another 400 μl of hexane was added to the aqueous layer, and extraction was repeated. Combined hexane layers were dried down and redissolved in 120 μl of hexane, and 100 μl fractions were analyzed by normal phase HPLC as previously described.

The target of assay [10] is T2, P23H-opsin. The assay is described as above. Type of assay: binding. Here is the method:
as §3

The target in assay [11] is T2, P23H-opsin. In words: Immunocytochemistry, localization in HEK293 cells. Type of assay: cell-based. As to conditions: immunofluorescence.
Description: HEK293 cells expressing wild-type rhodopsin or P23H-opsin under a tetracycline-inducible promoter were cultured in Dulbecco's modified Eagle's medium (Invitrogen). The cells were attached to glass bottom microwell dishes (MatTek Corp.) with Cell-Tak (Becton Dickinson Labware). Expression of opsin or P23H-opsin was induced by the addition of 1 μg/ml tetracycline as recommended by the manufacturer's protocol (Invitrogen). […] The cells were harvested after 24 hours and fixed with 4% paraformaldehyde (Fisher) in PBS (136 mM NaCl, 11.4 mM sodium phosphate, pH 7.4) for 10 minutes and washed by PBS. To block nonspecific labeling, the cells were incubated in 1.5% normal goat serum (Vector Lab., Inc.) in PBST (136 mM NaCl, 11.4 mM sodium phosphate, 0.1% Triton X-100, pH 7.4) for 15 minutes at room temperature. The cells were incubated overnight at 4° C. in purified 1D4 antibody diluted with PBST. The sections were rinsed in PBST and incubated with indocarbocyanine (Cy3)-conjugated goat anti-mouse IgG (Jackson ImmunoResearch Lab., Inc.) and Hoechst 33342 dye (Molecular Probes). The cells were rinsed in PBST and mounted in 50 μl of 2% 1,4-diazabicyclo-[2.2.2]octane (Sigma) in 90% glycerol to retard photobleaching. For confocal imaging, the cells were analyzed on a Zeiss LSM510 laser scanning microscope (Carl Zeiss, Inc.).
Where [12] appears, read: cell membranes, after photobleaching.
The mark [13] stands for this setting: mixture of the four 7-ring retinal isomers added during biosynthesis.

“Also recorded” adds a separate entry of the source.

In the case of 11-cis-6-ring retinal, in assay [1], the “pigment formation with wild-type opsin” value is recorded as “recombined with wild-type opsin”. The “regeneration of wild-type rhodopsin in cell membranes” value (“regeneration of wild-type rhodopsin” below) in [2] is listed as “regeneration”. For the same compound, the “pigment formation with P23H-opsin in cell membranes” value (shortened to “pigment formation with P23H-opsin”) in assay [3] was “only a small amount of pigment was formed”. Moreover, the “pigment formation / rescue of folding of P23H-opsin” value in [4] is “No significant pigment; also recorded: lack of activity”.
“7-rhodopsin: rhodopsin (wild-type opsin) regenerated with 11-cis-7-ring retinal”: in [5] (HEK293 cell membranes, 20 minutes light), the “stability to light in cell membranes” value was “not bleached by light”. In addition, the “stability to light, purified in detergent” value in assay [5] (purified pigment in detergent) is “stable to light”. In addition, in assay [6], the “cellular localization of wild-type opsin pigment” value was “found predominantly at the plasma membrane”. For the same compound, in assay [7], the “temperature stability of purified pigment” value was “no change in the amount of chromophore”.
With 11-cis-9-demethyl-7-ring retinal, the “pigment formation / rescue of folding of P23H-opsin” value in assay [4] is given as “ineffective in pigment formation”; in assay [4] (listed as 11-cis-9-demethyl-ring retinal) it was “lack of activity”.
As to `CC1=C(/C=C/C(C)=C/C=C/C(C)=C/C=O)C(C)(C)CCC1` [11-cis-retinal], the “glycosylation of P23H-opsin” value in assay [8] is “acquired a mature state of glycosylation”. For the same compound, in assay [1], the “pigment formation with wild-type opsin” value is “regeneration” and the “absorbance max of the pigment formed with wild-type opsin” value worked out at 499 nm. For the same compound, the “regeneration of wild-type rhodopsin” value in assay [2] is “regeneration”. For the same compound, the “pigment formation with P23H-opsin” value in assay [3] is “only a small amount of pigment was formed”. Moreover, in assay [4], the “pigment formation / rescue of folding of P23H-opsin” value was “induce the in vivo folding and stabilization of P23H-opsin”; the “absorbance max of the pigment formed with P23H-opsin” value stood at 492 nm.
Take 11-cis-7-ring retinal: the “glycosylation of P23H-opsin” value in [8] is on record as “Golgi-associated glycosylation pattern similar to the wild-type protein”. Moreover, the “substitution of bound chromophore by added 11-cis-retinal” value in assay [9] (setting [12]) is given as “did not lead to its substitution”. Further, the “isomer bound by wild-type opsin” value in assay [9] (setting [13]) is given as “selectively bound”. Besides, the “substitution of bound chromophore by added 11-cis-retinal” value in [10] (setting [12]) is “did not lead to its substitution”. The “isomer bound by P23H-opsin” value in assay [10] (setting [13]) was “selectively bound”. Also, in assay [1], the “pigment formation with wild-type opsin” value is reported as “recombined with wild-type opsin” and the “absorbance max of the pigment formed with wild-type opsin” value was “approximately 500±3 nm”. The “regeneration of wild-type rhodopsin” value in assay [2] is “regeneration”. Also, the “pigment formation with P23H-opsin” value in assay [3] is “only a small amount of pigment was formed”. Moreover, in assay [4], the “pigment formation / rescue of folding of P23H-opsin” value is given as “significant amounts of pigment” and the “absorbance max of the pigment formed with P23H-opsin” value was “approximately 490±3 nm”. In addition, the “fraction of P23H-opsin folded to form pigment (rescued)” value in [4] (selective elution of folded form, 10 mM phosphate, pH 6.0, spectra and immunoblots) was “approximately 80%”.
In the case of `CC1=C(/C=C/C(C)=C\C=C\C(C)=C\C=O)C(C)(C)CCC1` [9-cis-retinal], the “cellular localization of P23H-opsin” value in assay [11] is given as “promoted transport of P23H-opsin to the cell surface”.
